Laboratory results as given in PubChem BioAssay AID216 (DTP/NCI, 2004).
Several values for one entry are separate records, joined by “and”; a condition that tells them apart may be missing. Identical values can stand only once. Inconclusive results and toxic doses are left out.

Tested on: BDF1 mice, P288 leukemia ip, survival T/C
Experiment: NCI In Vivo Anticancer Drug Screen. Data for tumor model P288 Lymphocytic Leukemia (intraperitoneal) in B6D2F1 (BDF1) mice
Settings: endpoint: survival time, mean or median, higher = longer survival
Experimental: The antitumor activity of compounds was measured in mice bearing transplantable tumors. Survival or tumor size were measured and the results are expressed as the measurement made in the treated group (T) divided by the measurement made in the vehicle treated control group (C). The tumor model used in this assay is P288 Lymphocytic Leukemia (intraperitoneal) in B6D2F1 (BDF1) mice

[1] = dose: 25.0 mg/kg/injection, schedule: Q01DX Z (ip), vehicle: carboxymethylcellulose (CMC)
[2] = dose: 50.0 mg/kg/injection, schedule: Q01DX Z (ip), vehicle: carboxymethylcellulose (CMC)
[3] = dose: 100.0 mg/kg/injection, schedule: Q01DX Z (ip), vehicle: carboxymethylcellulose (CMC)
[4] = dose: 200.0 mg/kg/injection, schedule: Q01DX Z (ip), vehicle: carboxymethylcellulose (CMC)
[5] = dose: 25.0 mg/kg/injection, schedule: Q01DX010 (ip), vehicle: saline
[6] = dose: 50.0 mg/kg/injection, schedule: Q01DX010 (ip), vehicle: saline
[7] = dose: 100.0 mg/kg/injection, schedule: Q01DX010 (ip), vehicle: saline
[8] = dose: 200.0 mg/kg/injection, schedule: Q01DX010 (ip), vehicle: saline
[9] = dose: 10.0 mg/kg/injection, schedule: Q01DX010 (ip), vehicle: saline
[10] = dose: 20.0 mg/kg/injection, schedule: Q01DX010 (ip), vehicle: saline
[11] = dose: 40.0 mg/kg/injection, schedule: Q01DX010 (ip), vehicle: saline
[12] = dose: 16.0 mg/kg/injection, schedule: Q01DX Z (ip), vehicle: carboxymethylcellulose (CMC)
[13] = dose: 62.5 mg/kg/injection, schedule: Q01DX Z (ip), vehicle: carboxymethylcellulose (CMC)
[14] = dose: 125.0 mg/kg/injection, schedule: Q01DX Z (ip), vehicle: carboxymethylcellulose (CMC)
[15] = dose: 5.0 mg/kg/injection, schedule: Q01DX010 (ip), vehicle: saline

## CN(C)c1ccc(Nc2c3ccccc3nc3ccccc23)cc1
dose: 6.25 mg/kg/injection, schedule: Q01DX Z (ip), vehicle: carboxymethylcellulose (CMC)
  T/C: 115 % of control
dose: 12.5 mg/kg/injection, schedule: Q01DX Z (ip), vehicle: carboxymethylcellulose (CMC)
  T/C: 105 % of control
[1]
  T/C: 112 % of control
dose: 36.0 mg/kg/injection, schedule: Q01DX010 (ip), vehicle: saline
  T/C: 100 % of control
[2]
  T/C: 123 % of control and 98 % of control
dose: 54.0 mg/kg/injection, schedule: Q01DX010 (ip), vehicle: saline
  T/C: 111 % of control
[3]
  T/C: 117 % of control
dose: 120.0 mg/kg/injection, schedule: Q01DX010 (ip), vehicle: saline
  T/C: 88 % of control
[4]
  T/C: 92 % of control

## O=[n+]1c2c(n([O-])c3ccccc31)-c1cccc3cccc-2c13
[5]
  T/C: 88 % of control
[6]
  T/C: 94 % of control and 100 % of control
[7]
  T/C: 100 % of control
[8]
  T/C: 88 % of control and 100 % of control

## COc1cc(-c2ccc(Nc3ccccc3C(=O)O)c(OC)c2)ccc1N
[9]
  T/C: 94 % of control
[10]
  T/C: 114 % of control and 100 % of control
[11]
  T/C: 200 % of control
dose: 80.0 mg/kg/injection, schedule: Q01DX010 (ip), vehicle: saline
  T/C: 200 % of control and 228 % of control

## O=CCC(O)C(O)C(O)CO (stereo not given)
[12]
  T/C: 120 % of control
[13]
  T/C: 113 % of control
[14]
  T/C: 120 % of control
dose: 250.0 mg/kg/injection, schedule: Q01DX010 (ip), vehicle: saline
  T/C: 90 % of control and 100 % of control
dose: 500.0 mg/kg/injection, schedule: Q01DX010 (ip), vehicle: saline
  T/C: 100 % of control

## O=C(Nc1ccc(C2=NCCCN2)cc1)c1ccc(NC(=O)c2ccc(C3=NCCCN3)cc2)cc1
dose: 0.24 mg/kg/injection, schedule: Q01DX Z (ip), vehicle: carboxymethylcellulose (CMC)
  T/C: 113 % of control
dose: 0.49 mg/kg/injection, schedule: Q01DX Z (ip), vehicle: carboxymethylcellulose (CMC)
  T/C: 94 % of control
dose: 0.98 mg/kg/injection, schedule: Q01DX Z (ip), vehicle: carboxymethylcellulose (CMC)
  T/C: 121 % of control
dose: 1.0 mg/kg/injection, schedule: Q01DX010 (ip), vehicle: other
  T/C: 120 % of control
dose: 1.95 mg/kg/injection, schedule: Q01DX Z (ip), vehicle: carboxymethylcellulose (CMC)
  T/C: 119 % of control
dose: 2.0 mg/kg/injection, schedule: Q01DX010 (ip), vehicle: other
  T/C: 124 % of control
dose: 3.9 mg/kg/injection, schedule: Q01DX Z (ip), vehicle: carboxymethylcellulose (CMC)
  T/C: 183 % of control
dose: 4.0 mg/kg/injection, schedule: Q01DX010 (ip), vehicle: other
  T/C: 184 % of control and 237 % of control
dose: 7.8 mg/kg/injection, schedule: Q01DX Z (ip), vehicle: carboxymethylcellulose (CMC)
  T/C: 245 % of control
dose: 8.0 mg/kg/injection, schedule: Q01DX010 (ip), vehicle: other
  T/C: 237 % of control and 284 % of control
dose: 15.6 mg/kg/injection, schedule: Q01DX Z (ip), vehicle: carboxymethylcellulose (CMC)
  T/C: 156 % of control
dose: 16.0 mg/kg/injection, schedule: Q01DX010 (ip), vehicle: other
  T/C: 92 % of control
dose: 31.25 mg/kg/injection, schedule: Q01DX Z (ip), vehicle: carboxymethylcellulose (CMC)
  T/C: 103 % of control

## Oc1cc(CN(CCCl)CCCl)c(O)cc1CN(CCCl)CCCl
dose: 0.63 mg/kg/injection, schedule: Q01DX010 (ip), vehicle: saline
  T/C: 100 % of control
dose: 1.25 mg/kg/injection, schedule: Q01DX010 (ip), vehicle: saline
  T/C: 111 % of control and 100 % of control
dose: 1.88 mg/kg/injection, schedule: Q01DX Z (sc), vehicle: steriod suspending solution
  T/C: 87 % of control
dose: 2.5 mg/kg/injection, schedule: Q01DX010 (ip), vehicle: saline
  T/C: 105 % of control
dose: 3.75 mg/kg/injection, schedule: Q01DX Z (sc), vehicle: steriod suspending solution
  T/C: 104 % of control
[15]
  T/C: 105 % of control and 116 % of control
[9]
  T/C: 95 % of control

## [N-]=[N+]=CC(=O)NCC(=O)NN
dose: 125.0 mg/kg/injection, schedule: Q01DX Z (ip), vehicle: other
  T/C: 96 % of control
dose: 250.0 mg/kg/injection, schedule: Q01DX Z (ip), vehicle: other
  T/C: 98 % of control
dose: 500.0 mg/kg/injection, schedule: Q01DX Z (ip), vehicle: other
  T/C: 92 % of control

## OCC1OC(n2cnc3c(=S)nc[nH]c32)C(O)C1O (stereo not given)
[12]
  T/C: 94 % of control
dose: 31.0 mg/kg/injection, schedule: Q01DX Z (ip), vehicle: carboxymethylcellulose (CMC)
  T/C: 94 % of control
[13]
  T/C: 109 % of control
[14]
  T/C: 97 % of control
dose: 250.0 mg/kg/injection, schedule: Q01DX Z (ip), vehicle: carboxymethylcellulose (CMC)
  T/C: 92 % of control

## CCN(CC)CCNc1ccc(C)c2sc3ccccc3c(=O)c12
[5]
  T/C: 110 % of control
[6]
  T/C: 205 % of control
dose: 51.0 mg/kg/injection, schedule: Q01DX010 (ip), vehicle: saline
  T/C: 155 % of control
[7]
  T/C: 180 % of control

## S=c1nc[nH]c2nc[nH]c12
dose: 5.0 mg/kg/injection, schedule: Q01DX010 (ip), vehicle: alkali diluted with saline
  T/C: 92 % of control
dose: 10.0 mg/kg/injection, schedule: Q01DX010 (ip), vehicle: alkali diluted with saline
  T/C: 94 % of control
dose: 12.5 mg/kg/injection, schedule: Q01DX Z (ip), vehicle: other
  T/C: 97 % of control
dose: 20.0 mg/kg/injection, schedule: Q01DX010 (ip), vehicle: alkali diluted with saline
  T/C: 86 % of control and 100 % of control
dose: 25.0 mg/kg/injection, schedule: Q01DX Z (ip), vehicle: other
  T/C: 93 % of control and 100 % of control
dose: 40.0 mg/kg/injection, schedule: Q01DX010 (ip), vehicle: alkali diluted with saline
  T/C: 110 % of control and 86 % of control
dose: 50.0 mg/kg/injection, schedule: Q01DX Z (ip), vehicle: other
  T/C: 102 % of control and 94 % of control
dose: 80.0 mg/kg/injection, schedule: Q01DX010 (ip), vehicle: alkali diluted with saline
  T/C: 117 % of control and 86 % of control
dose: 100.0 mg/kg/injection, schedule: Q01DX Z (ip), vehicle: other
  T/C: 105 % of control and 118 % of control
dose: 200.0 mg/kg/injection, schedule: Q01DX Z (ip), vehicle: other
  T/C: 106 % of control and 100 % of control
dose: 400.0 mg/kg/injection, schedule: Q01DX Z (ip), vehicle: other
  T/C: 89 % of control

## C[C@@H]1C[C@@H]([C@H](O)CC2CC(=O)NC(=O)C2)C(=O)[C@@H](C)C1
[9]
  T/C: 94 % of control
dose: 12.5 mg/kg/injection, schedule: Q01DX Z (ip), vehicle: water
  T/C: 94 % of control
[10]
  T/C: 94 % of control
dose: 25.0 mg/kg/injection, schedule: Q01DX Z (ip), vehicle: water
  T/C: 98 % of control
[11]
  T/C: 105 % of control

## COc1ccc2c(c1OC)C(=O)O[C@@H]2[C@H]1c2c(cc3c(c2OC)OCO3)CCN1C
dose: 3.9 mg/kg/injection, schedule: Q01DX010 (ip), vehicle: saline
  T/C: 112 % of control
dose: 7.8 mg/kg/injection, schedule: Q01DX010 (ip), vehicle: saline
  T/C: 112 % of control
dose: 31.3 mg/kg/injection, schedule: Q01DX010 (ip), vehicle: saline
  T/C: 106 % of control

## C[C@@H]1C[C@H]2CC[C@H](O2)[C@H](C)C(=O)O[C@@H](C)C[C@@H]2CC[C@@H](O2)[C@@H](C)C(=O)O[C@H](C)C[C@H]2CC[C@H](O2)[C@H](C)C(=O)O[C@@H](C)C[C@@H]2CC[C@@H](O2)[C@@H](C)C(=O)O1
[1]
  T/C: 98 % of control
[2]
  T/C: 96 % of control
[3]
  T/C: 120 % of control
[4]
  T/C: 111 % of control

## O=c1[nH]cc(F)c(=O)[nH]1
[15]
  T/C: 115 % of control and 118 % of control and 100 % of control
[9]
  T/C: 122 % of control
[10]
  T/C: 155 % of control and 190 % of control and 193 % of control

## CS(=O)(=O)OCC(O)C(O)C(O)C(O)COS(C)(=O)=O (stereo not given)
[5]
  T/C: 100 % of control
[6]
  T/C: 114 % of control and 94 % of control
[7]
  T/C: 111 % of control and 100 % of control
[8]
  T/C: 105 % of control and 100 % of control
dose: 400.0 mg/kg/injection, schedule: Q01DX010 (ip), vehicle: saline
  T/C: 114 % of control
